Experimental data as given in paper PMC3132063 (2011).

Target: Janus kinase 2 (JAK2) (Homo sapiens, UniProt O60674)
Sequence (O60674 whole entry): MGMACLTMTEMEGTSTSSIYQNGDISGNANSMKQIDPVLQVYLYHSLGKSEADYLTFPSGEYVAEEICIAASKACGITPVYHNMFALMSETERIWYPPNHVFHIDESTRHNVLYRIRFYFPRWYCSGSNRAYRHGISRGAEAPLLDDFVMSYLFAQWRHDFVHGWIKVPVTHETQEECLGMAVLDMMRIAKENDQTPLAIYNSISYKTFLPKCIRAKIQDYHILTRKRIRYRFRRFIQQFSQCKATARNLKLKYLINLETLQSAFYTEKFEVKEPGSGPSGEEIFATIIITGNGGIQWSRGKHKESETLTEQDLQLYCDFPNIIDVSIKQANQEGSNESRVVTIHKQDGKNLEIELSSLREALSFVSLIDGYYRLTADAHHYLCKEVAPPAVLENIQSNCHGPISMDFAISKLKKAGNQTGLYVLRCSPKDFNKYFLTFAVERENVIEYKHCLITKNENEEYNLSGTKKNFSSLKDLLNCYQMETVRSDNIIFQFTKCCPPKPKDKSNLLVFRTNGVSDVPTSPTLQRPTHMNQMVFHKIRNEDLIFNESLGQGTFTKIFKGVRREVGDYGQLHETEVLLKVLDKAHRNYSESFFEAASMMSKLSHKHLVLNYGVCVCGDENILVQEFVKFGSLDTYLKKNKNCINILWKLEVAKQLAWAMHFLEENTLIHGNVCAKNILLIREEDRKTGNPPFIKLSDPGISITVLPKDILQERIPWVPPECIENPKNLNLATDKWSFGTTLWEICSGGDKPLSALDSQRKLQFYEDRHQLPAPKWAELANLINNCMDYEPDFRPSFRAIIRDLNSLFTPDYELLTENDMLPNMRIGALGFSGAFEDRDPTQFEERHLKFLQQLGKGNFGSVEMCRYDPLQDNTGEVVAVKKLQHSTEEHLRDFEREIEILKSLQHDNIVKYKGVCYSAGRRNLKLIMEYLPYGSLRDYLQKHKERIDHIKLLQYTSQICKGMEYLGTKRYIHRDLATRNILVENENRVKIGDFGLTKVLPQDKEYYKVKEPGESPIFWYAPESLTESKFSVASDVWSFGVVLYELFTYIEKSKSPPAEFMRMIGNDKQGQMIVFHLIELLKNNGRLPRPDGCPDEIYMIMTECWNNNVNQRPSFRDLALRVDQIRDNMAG

IC50: 1.8 ± 0.6 nM
Structure (SMILES): CN1CCN(c2cccc(Nc3nc4c(-c5ccc(S(C)(=O)=O)cc5)cccn4n3)c2)CC1 [CEP-33779]
